US8101658B2, “Nitric oxide donating prostamides” (Nicox S.A., priority 2008, dated 2012)
“And” between values parts separate entries of the source, which are not always exact repeats. Equal entries are not always repeated. Marks after values point to notes of the source that are not given here.

Legend:
[1] = test system: ocular hypertensive non human primates; test: Intraocular pressure by pneumatonometry in ocular hypertensive primates; assay type: in vivo; conditions: ocular hypertensive primate, hypertensive eye, topical 2×25 μl drops in the evening, dose equimolar to 0.03% Bimatoprost; for ΔEmax (maximal IOP efficacy as compared to baseline): IOP at 12 and 18 h, n=8
Description: (§1) Intraocular pressure was measured by pneumatonometry in ocular normotensive dogs (Beagle) and ocular hypertensive non human primates (for example, although dosing different here, see hypertensive primates described by Toris, C. B.; Zhan, G.-L.; Feilmeier, M. R.; Camras, C. B.; McLaughlin, M. A. J. Ocular Pharm. Ther. 2006, 22, 86-92). As described, only one eye is hypertensive in this primate model. Studies were performed in conscious animals (n=8/study) trained to accept pneumatonometry. The test compound and controls were formulated in a 10 mM citrate buffer vehicle at pH 5.5 with 0.5% Tween 80 and 0.02% benzalkonium chloride, and were administered in the evening. All test compounds were formulated at a dose equimolar to 0.03% Bimatoprost. Intraocular pressure was measured at −12 (baseline), 12 and 18 hours post treatment. Tetracaine hydrochloride (0.5%) was used to anesthetize the cornea when the intraocular pressure measurements were taken.
(§2) In the primate model, the hypertensive eye received 2×25 μl volume drops of the test compound. After a washout period of one week, the ocular hypertensive eye was then dosed with Bimatoprost (2×25 μl volume drops) as a control. The contralateral, normotensive eye was not treated in the study. In the normotensive dog model, the test compound was administered topically to one eye in a 50 μl volume drop. The contralateral eye received a 50 μl volume drop of blank vehicle or Bimatoprost (in the case of the head-to-head study only) to serve as a control. Students paired t test was used to compare treatment with test compound vs vehicle or Bimatoprost control for significant differences.
(§3) Tables 2 and 3 describe the intraocular pressure (IOP) changes that were seen following topical application of novel NO-prostamides in ocular hypertensive non-human primates and normotensive dogs. ΔEmax represents the maximal efficacy as compared to baseline (BL) values. ΔΔEmax reflects the difference in IOP from compound-treated eye over that seen for vehicle-treated eye at the timepoint wherein maximum IOP reduction for compound was seen. The percent change from vehicle control was the percentage change in IOP reduction conferred by compound over that for vehicle (set at 100%). Tmax represents the time point at which maximum IOP reduction of compound was observed.

[2] = test system: ocular normotensive dogs (Beagle); test: Intraocular pressure by pneumatonometry in ocular normotensive dogs; assay type: in vivo; conditions: normotensive dog; for % Change from vehicle control (IOP): topical 50 μl drop to one eye, contralateral eye vehicle (set at 100%); for ΔΔEmax (difference in IOP compound-treated eye over vehicle-treated eye at time of maximum reduction): topical 50 μl drop to one eye in the evening, contralateral eye vehicle, dose equimolar to 0.03% Bimatoprost, n=8
Description: as §1, §2, §3

SMILES: CCNC(=O)CCC/C=C\C[C@@H]1[C@@H](/C=C/[C@H](CCc2ccccc2)OC(=O)CCCCCO[N+](=O)[O-])[C@H](O)C[C@@H]1O [Example B-1, (1S,2E)-3-{(1R,2R,3S,5R)-2-[(2Z)-7-(Ethylamino)-7-oxohept-2-en-1-yl]-3,5-dihydroxycyclopentyl}-1-(2-phenylethyl)prop-2-en-1-yl 6-(Nitrooxy)hexanoate]
- % change from Baseline (IOP) [1]: −24** %
- ΔEmax (maximal IOP efficacy as compared to baseline) [1]: −7.7** mm Hg
- % Change from vehicle control (IOP) [2]: −28** % and −34** %

SMILES: CCNC(=O)CCC/C=C\C[C@@H]1[C@@H](/C=C/[C@@H](O)CCc2ccccc2)[C@H](OC(=O)CCCCCO[N+](=O)[O-])C[C@@H]1O [Example F-1, (1R,2R,3R,4S)-3-[(2Z)-7-(Ethylamino)-7-oxohept-2-en-1-yl]-4-hydroxy-2-[(1E,3S)-3-hydroxy-5-phenylpent-1-en-1-yl]cyclopentyl 6-(Nitrooxy)hexanoate]
- ΔΔEmax (difference in IOP compound-treated eye over vehicle-treated eye at time of maximum reduction) [2]: −4.9** mm H/g
- % Change from vehicle control (IOP) [2]: −25** %

SMILES: CCNC(=O)CCC/C=C\C[C@@H]1[C@@H](/C=C/[C@H](CCc2ccccc2)OC(=O)CCOCCOCCOCCO[N+](=O)[O-])[C@H](O)C[C@@H]1O [Example C-1, (1S,2E)-3-{(1R,2R,3S,5R)-2-[(2Z)-7-(Ethylamino)-7-oxohept-2-en-1-yl]-3,5-dihydroxycyclopentyl}-1-(2-phenylethyl)prop-2-en-1-yl 3-(2-{2-[2-(Nitrooxy)ethoxy]ethoxy}ethoxy)propanoate]
- ΔΔEmax (difference in IOP compound-treated eye over vehicle-treated eye at time of maximum reduction) [2]: −3.6** mm H/g
- % Change from vehicle control (IOP) [2]: -18%

SMILES: CCNC(=O)CCC/C=C\C[C@@H]1[C@@H](/C=C/[C@H](CCc2ccccc2)OC(=O)CCCO[N+](=O)[O-])[C@H](O)C[C@@H]1O [Example A-1, (1S,2E)-3-{(1R,2R,3S,5R)-2-[(2Z)-7-(Ethylamino)-7-oxohept-2-en-1-yl]-3,5-dihydroxycyclopentyl}-1-(2-phenylethyl)prop-2-en-1-yl 4-(Nitrooxy)butanoate]
- ΔΔEmax (difference in IOP compound-treated eye over vehicle-treated eye at time of maximum reduction) [2]: −3.6** mm H/g
- % Change from vehicle control (IOP) [2]: −20** %

SMILES: CCNC(=O)CCC/C=C\C[C@@H]1[C@@H](/C=C/[C@@H](O)CCc2ccccc2)[C@H](OC(=O)OCCCCO[N+](=O)[O-])C[C@@H]1O [Example G-1, (2R,3R)-3-[(2Z)-7-(Ethylamino)-7-oxohept-2-en-1-yl]-4-hydroxy-2-[(1E,3S)-3-hydroxy-5-phenylpent-1-en-1-yl]cyclopentyl 4-(Nitrooxy)butyl Carbonate]
- ΔΔEmax (difference in IOP compound-treated eye over vehicle-treated eye at time of maximum reduction) [2]: −3.8** mm H/g
- % Change from vehicle control (IOP) [2]: -20%

SMILES: CCNC(=O)CCC/C=C\C[C@@H]1[C@@H](/C=C/[C@@H](O)CCc2ccccc2)[C@H](O)C[C@@H]1O [Bimatoprost, reference compound]
- % change from Baseline (IOP) [1]: −13%
- ΔEmax (maximal IOP efficacy as compared to baseline) [1]: −4.8* mm Hg
- ΔΔEmax (difference in IOP compound-treated eye over vehicle-treated eye at time of maximum reduction) [2]: −4.0** mm H/g
- % Change from vehicle control (IOP) [2]: −16** %
